The source of these data is paper PMC10968680, “FHND004 inhibits malignant proliferation of multiple myeloma by targeting PDZ-binding kinase in MAPK pathway” (Aging (Albany NY), 2024).

Assay [1] addresses T1, PDZ-binding kinase (PBK) (Homo sapiens, UniProt Q96KB5, D125A/N124A).
T1 sequence (Q96KB5 1-322 N124A/D125A): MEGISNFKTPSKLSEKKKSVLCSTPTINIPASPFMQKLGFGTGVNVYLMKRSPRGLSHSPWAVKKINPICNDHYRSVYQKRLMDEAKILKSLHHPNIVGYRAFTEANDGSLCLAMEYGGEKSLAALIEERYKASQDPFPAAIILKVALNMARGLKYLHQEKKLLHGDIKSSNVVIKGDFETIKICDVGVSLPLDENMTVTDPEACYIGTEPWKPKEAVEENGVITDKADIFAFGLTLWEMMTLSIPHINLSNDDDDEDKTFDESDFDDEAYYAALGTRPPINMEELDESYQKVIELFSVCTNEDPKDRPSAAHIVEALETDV
Put plainly: microscale thermophoresis (MST). For orientation: Microscale thermophoresis detects binding through changes in fluorescence in a small temperature gradient.

Assay [2] deals with T2, PDZ-binding kinase (PBK) (Homo sapiens, UniProt Q96KB5).
T2 sequence (Q96KB5 1-322): T1 sequence (Q96KB5 1-322 N124A/D125A) with A124N, A125D
The assay can be described thus: microscale thermophoresis (MST) with RED-NHS labelled purified PBK.

Numbering of substitutions follows the chain as printed.

For the compound `C=CC(=O)Nc1cc(Nc2nccc(-c3cn4c5c(cccc35)CCC4)n2)c(OC)cc1N(C)CCN(C)C` [FHND004], the Kd amounted to 99.5 µM at PDZ-binding kinase (PBK) [1] and 3.1 µM at PDZ-binding kinase (PBK) [2].

For orientation: Kd means the free concentration of one partner at which half of the binding sites on the other are occupied at equilibrium, for simple one-to-one binding.
